Patent publication US12268901B2, “Targeting cell tropism receptors to inhibit cytomegalovirus infection” (priority 2017, dated 2025)
Entries after “also recorded” stand apart in the source; their conditions may differ.

Key:
Assay type in all cases: cell-based, Human cytomegalovirus (HCMV)
[1] = tested on: TB40E-GFP virus binding to ARPE19 cells; experiment: Peptide blocking assay, cell-binding virus assay (viral DNA by qPCR); details: different amounts of Peptide 1 preincubated with virus at 37° C. for 2 h, applied to ARPE19 cells at 4° C. for 2 h
Protocol: The shPDGFRA, shOR14I1 and shDMBT1 transduced ARPE19 cells were chilled on ice for 20 min and then incubated with chilled TB40E-GFP at the indicated MOT on ice for 1 h. The cells were then washed ten times with cold PBS. Cellular DNA and cell-associated viral DNA were isolated using a DNeasy Blood & Tissue Kit (Qiagen). Viral DNA (UL83) and host DNA ((β-ACTIN) was quantified by real-time quantitative PCR as described (E et al., J Virol 88, 2279-2290 (2014)).
DNA was isolated from infected ARPE cells using the Dneasy Blood and Tissue DNA mini kit (Qiagen) according to the manufacturer's instructions. Viral genomes were quantified with a primer pair (pp549s and pp812as) and a probe (pp770s) for UL83 (3), and the number of viral genomes normalized to the number of cellular copies of β-ACTIN with a previously described set of primers and probe (4). Unknown sample values were determined on the basis of a standard curve of known copy numbers of UL83 (AD169-BAC) and β-ACTIN (pAB1-bactin-PCRscript) (kind gifts from Donald Coen, Harvard Medical School). […] Real-time PCR was performed and analyzed by using a ViiA7 Real-Time PCR System (Applied Biosystems). […]
Viral binding to ARPE19 cells was evaluated in the presence of Sf9-OR14I1 membrane particles. […] After washing with cold PBS, viral DNA levels were quantified by qPCR. […] After cold PBS washing, viral DNA levels were quantified by qPCR. […]

[2] = tested on: TB40E virus infection of epithelial cell lines; experiment: Peptide blocking assay, infection of several epithelial cell lines (percent GFP positive cells); details: Peptide 1 100 μg/ml, MOI=2.0, 2 dpi
Protocol: FIG. 10. […] Peptide 1 (100 μg/ml), or DMSO alone was preincubated with TB40E virus, followed by infection of the indicated epithelial cell lines (MOI=2.0). Cells were fixed and imaged for GFP and DNA at 2 dpi. […] Values indicate the mean percentage of infected cells of three experiments±SD. **p<0.01; ***p<0.001.
The noted synthetic peptides (100 ug/ml each or as described) were mixed with TB40E-GFP virus (1.2×10^6 PFU) and incubated at 37° C. for 2 h by rocking. The resulting samples were then subjected to the virus binding or infection assay.

[3] = tested on: HCMV TB40E-GFP replication in ARPE19 cells; experiment: Plaque assay of culture supernatants for infectious virus; details: peptide 1 100 μg/ml, ARPE19, MOI=2.0, supernatants at indicated dpi
Protocol: (A) Different amounts of peptide 1 were preincubated with TB40E-GFP virus and the mixture applied to ARPE19. Viral DNA levels were quantified by qPCR. (B) The results in (A) are presented as the relative amount of viral DNA relative to the DMSO control. (C) TB40E-GFP virus was preincubated with peptide 1 (100 μg/ml), or DMSO, followed by infection of ARPE19 cells (MOI=2.0). Cells were imaged for GFP expression at 2 dpi (D2) and 7 dpi (D7). (D) TB40E-GFP or BADrUL131-GFP virus, both expressing PC, were preincubated with peptide 1 (100 μg/ml), or DMSO prior to infection of ARPE19 cells (MOI=2.0). Cells were fixed and imaged for GFP at 2 dpi. All data represent the mean of n=3 experiments+/−SD. (E) Culture media supernatants from (C) were harvested on the indicated dpi and assayed for infectious virus by plaque assay. Values indicate the mean percent infected cells of 3 independent experiments±SD. ****p<0.0001.

[4] = tested on: TB40E-GFP infection of ARPE19 cells; experiment: cAMP/PKA signaling pathway modulation, TB40E-GFP infection; details: H-89 20 μM, SQ22536 150 μM, FSK 20 μM, 2 h prior to infection, MOI=4.0, 48 hpi
Protocol: FIGS. 7A-C. HCMV receptor engagement and cAMP/PKA signaling. ARPE19 or OR14I1 knock down cells were pretreated with phosphokinase A (PKA) inhibitor H-89 (20 μM), adenylate cyclase antagonist, SQ22536 (150 μM), or adenylate cyclase activator, forskolin (FSK; 20 μM) for 2 h prior to TB40E-GFP infection (MOI=4.0). Cells were fixed at 48 hpi and images taken.
H-89, SQ22536 and Foskolin were purchased from Sigma-Aldrich Chemicals. Wild type ARPE19 or ARPE19 cells expressing the indicated shRNAs were treated with protein kinase A (PKA) inhibitor H-89 (20 μM), adenylate cyclase antagonist, SQ22536 (150 μM), or adenylate cyclase activator, forskolin (FSK; 20 μM) for 2 h prior to infection with TB40E-GFP (MOI=2.0). After 2 h, the medium was then replaced by the standard medium that also contained the noted small molecules. Images were taken at 2 dpi.
HCMV receptor engagement and cAMP/PKA signaling was also evaluated. ARPE19 or OR14I1 knock down cells were pretreated with phosphokinase A (PKA) inhibitor H-89 (20 μM), adenylate cyclase antagonist, SQ22536 (150 μM), or adenylate cyclase activator, forskolin (FSK; 20 μM) for 2 h prior to TB40E-GFP infection (MOI=4.0).

MDNLTKVTEFLLMEFSGIWELQVLHA (N-terminal fragment of OR14I1) [Peptide 1, synthetic peptide representing the N-terminus of OR14I1, position 1-26]
TB40E-GFP virus binding to ARPE19 cells (viral DNA by qPCR) [1]: sufficient to prevent for TB40E-GFP virus binding ARPE19 cells | PC+ virus infection of multiple epithelial cell lines (percent GFP positive cells) [2]: prevented PC+ virus infection; also recorded: inhibits HCMV infection of several epithelial cell lines | long-term replication of HCMV (infectious virus by plaque assay) [3]: compromised the long-term replication of HCMV | infectivity of TB40E-GFP in ARPE19 epithelial cells [4]: reduced infectivity significantly
